Measured values taken from ChEMBL document CHEMBL5143618, “Design, synthesis, and antitumor activity evaluation of novel acyl sulfonamide spirodienones” (Bioorg Med Chem, 2022).
Active and inactive are the calls of the source. No cut-off for these calls is given here.

Columns and labels:
MDA-MB-231 [1] = assay: cells; format: functional, cell-based; conditions: Homo sapiens, MDA-MB-231, 74 h
Description: Antiproliferative activity against human MDA-MB-231 cells assessed as inhibition of cell growth measured after 74 hrs by SRB assay

A549 [2] = assay: cells; format: functional, cell-based; conditions: Homo sapiens, A549, 74 h
Description: Antiproliferative activity against human A549 cells assessed as inhibition of cell growth measured after 74 hrs by SRB assay

[3] = Acute toxicity in Kunming mouse assessed as mortality at 100 mg/kg, ip single dose; format: organism-based; conditions: in vivo
HeLa [4] = assay: cells; format: functional, cell-based; conditions: Homo sapiens, 74 h
Description: Antiproliferative activity against human HeLa cells assessed as inhibition of cell growth measured after 74 hrs by SRB assay

HepG2 = assay: Antiproliferative activity against human HepG2 cells assessed as inhibition of cell growth measured after 74 hrs by SRB assay; format: functional, cell-based; conditions: HepG2, 74 h
MDA-MB-231 [5] = assay: Induction of apoptosis in human MDA-MB-231 cells assessed as necrotic cells at 10 uM incubated for 24 hrs by annexin V-FITC and PI staining based flow cytometry analysis (reference value: 0.68 %); format: functional
MDA-MB-231 [6] = assay: Induction of apoptosis in human MDA-MB-231 cells assessed as late apoptotic cells at 10 uM incubated for 24 hrs by annexin V-FITC and PI staining based flow cytometry analysis (reference value: 1.02 %); format: functional
MDA-MB-231 [7] = assay: Induction of apoptosis in human MDA-MB-231 cells assessed as early apoptotic cells at 10 uM incubated for 24 hrs by annexin V-FITC and PI staining based flow cytometry analysis (reference value: 4.66 %); format: functional
MDA-MB-231 [8] = assay: Induction of apoptosis in human MDA-MB-231 cells assessed as viable cells at 10 uM incubated for 24 hrs by annexin V-FITC and PI staining based flow cytometry analysis (reference value: 93.6 %); format: functional; conditions: read-out: Activity
[9] = Acute toxicity in Kunming mouse assessed as mortality at 150 mg/kg, ip single dose; format: organism-based; conditions: in vivo, read-out: Activity
[10] = Acute toxicity in Kunming mouse assessed as mortality at 200 mg/kg, ip single dose; format: organism-based; conditions: in vivo, read-out: Activity
[11] = Acute toxicity in Kunming mouse assessed as mortality at 250 mg/kg, ip single dose; format: organism-based; conditions: in vivo, read-out: Activity
[12] = Acute toxicity in female Kunming mouse assessed as drug tolerance at 100 to 250 mg/kg, ip single dose measured up to 2 weeks; format: organism-based; conditions: in vivo, 336 h, dose 100-250 mg/kg
[13] = Acute toxicity in male Kunming mouse assessed as drug tolerance at 100 to 250 mg/kg, ip single dose measured up to 2 weeks; format: organism-based; conditions: in vivo, 336 h, dose 100-250 mg/kg
[14] = Acute toxicity in female Kunming mouse assessed as body weight gain at 100 to 250 mg/kg, ip single dose measured up to 2 weeks; format: organism-based; conditions: in vivo, 336 h, dose 100-250 mg/kg
[15] = Acute toxicity in male Kunming mouse assessed as body weight gain at 100 to 250 mg/kg, ip single dose measured up to 2 weeks; format: organism-based; conditions: in vivo, 336 h, dose 100-250 mg/kg
[16] = Acute toxicity in female Kunming mouse assessed as clinical signs of toxicity in eyes at 100 to 250 mg/kg, ip single dose measured up to 2 weeks; format: organism-based; conditions: in vivo, 336 h, dose 100-250 mg/kg
[17] = Acute toxicity in male Kunming mouse assessed as clinical signs of toxicity in eyes at 100 to 250 mg/kg, ip single dose measured up to 2 weeks; format: organism-based; conditions: in vivo, 336 h, dose 100-250 mg/kg
[18] = Acute toxicity in female Kunming mouse assessed as clinical signs of toxicity in skin at 100 to 250 mg/kg, ip single dose measured up to 2 weeks; format: organism-based; conditions: in vivo, 336 h, dose 100-250 mg/kg
[19] = Acute toxicity in male Kunming mouse assessed as clinical signs of toxicity in skin at 100 to 250 mg/kg, ip single dose measured up to 2 weeks; format: organism-based; conditions: in vivo, 336 h, dose 100-250 mg/kg
[20] = Acute toxicity in female Kunming mouse assessed as clinical signs of toxicity in fur at 100 to 250 mg/kg, ip single dose measured up to 2 weeks; format: organism-based; conditions: in vivo, 336 h, dose 100-250 mg/kg
[21] = Acute toxicity in male Kunming mouse assessed as clinical signs of toxicity in fur at 100 to 250 mg/kg, ip single dose measured up to 2 weeks; format: organism-based; conditions: in vivo, 336 h, dose 100-250 mg/kg
[22] = Acute toxicity in Kunming mouse assessed as pathological changes in heart at 100 to 250 mg/kg, ip single dose by hematoxylin and eosin staining based assay; format: organism-based; conditions: in vivo, dose 100-250 mg/kg
[23] = Acute toxicity in Kunming mouse assessed as pathological changes in liver at 100 to 250 mg/kg, ip single dose by hematoxylin and eosin staining based assay; format: organism-based; conditions: in vivo, dose 100-250 mg/kg
[24] = Acute toxicity in Kunming mouse assessed as pathological changes in spleen at 100 to 250 mg/kg, ip single dose by hematoxylin and eosin staining based assay; format: organism-based; conditions: in vivo, dose 100-250 mg/kg
[25] = Acute toxicity in Kunming mouse assessed as pathological changes in lung at 100 to 250 mg/kg, ip single dose by hematoxylin and eosin staining based assay; format: organism-based; conditions: in vivo, dose 100-250 mg/kg
[26] = Acute toxicity in Kunming mouse assessed as pathological changes in kidney at 100 to 250 mg/kg, ip single dose by hematoxylin and eosin staining based assay; format: organism-based; conditions: in vivo, dose 100-250 mg/kg
4T1 [27] = assay: Antitumor activity against mouse 4T1 cells inoculated orthotopic mouse assessed as reduction in tumor volume at 10 mg/kg, ip administered every day measured after 14 days (reference value: 623 mm3); format: functional; conditions: time 14 day
4T1 [28] = assay: Antitumor activity against mouse 4T1 cells inoculated orthotopic mouse assessed as tumor growth inhibition ratio at 10 mg/kg, ip administered every day measured after 14 days; format: functional; design: scale not given: the % may be the effect or the level left; conditions: time 14 day
[29] = Toxicity in orthotopic mouse inoculated with mouse 4T1 cells assessed as body weight loss at 10 mg/kg, ip administered every day measured after 14 days; format: organism-based; conditions: in vivo, 336 h, time 14 day
[30] = Toxicity in orthotopic mouse inoculated with mouse 4T1 cells assessed as side effects at 10 mg/kg, ip administered every day measured after 14 days; format: organism-based; conditions: in vivo, 336 h, time 14 day
[31] = Toxicity in orthotopic mouse inoculated with mouse 4T1 cells assessed as appearance of lesions in heart at 10 mg/kg, ip administered every day measured after 14 days by hematoxylin and eosin staining based assay; format: organism-based; conditions: in vivo, 336 h, time 14 day
[32] = Toxicity in orthotopic mouse inoculated with mouse 4T1 cells assessed as appearance of lesions in liver at 10 mg/kg, ip administered every day measured after 14 days by hematoxylin and eosin staining based assay; format: organism-based; conditions: in vivo, 336 h, time 14 day
[33] = Toxicity in orthotopic mouse inoculated with mouse 4T1 cells assessed as appearance of lesions in spleen at 10 mg/kg, ip administered every day measured after 14 days by hematoxylin and eosin staining based assay; format: organism-based; conditions: in vivo, 336 h, time 14 day
[34] = Toxicity in orthotopic mouse inoculated with mouse 4T1 cells assessed as appearance of lesions in lung at 10 mg/kg, ip administered every day measured after 14 days by hematoxylin and eosin staining based assay; format: organism-based; conditions: in vivo, 336 h, time 14 day
[35] = Toxicity in orthotopic mouse inoculated with mouse 4T1 cells assessed as appearance of lesions in kidney at 10 mg/kg, ip administered every day measured after 14 days by hematoxylin and eosin staining based assay; format: organism-based; conditions: in vivo, 336 h, time 14 day
4T1 [36] = assay: Antitumor activity against mouse 4T1 cells inoculated orthotopic mouse assessed as apoptotic cells in tumor tissue by TUNEL assay (reference value: 3.13%); format: functional
MDA-MB-231 [37] = assay: Induction of cell cycle arrest in human MDA-MB-231 cells assessed as accumulation of cells in G1 phase at 10 uM incubated for 24 hrs by PI staining based flow cytometry analysis (reference value: 74.44 %); format: functional
MDA-MB-231 [38] = assay: Induction of cell cycle arrest in human MDA-MB-231 cells assessed as accumulation of cells in G2 phase at 10 uM incubated for 24 hrs by PI staining based flow cytometry analysis (reference value: 8.95 %); format: functional
MDA-MB-231 [39] = assay: Induction of cell cycle arrest in human MDA-MB-231 cells assessed as accumulation of cells in S phase at 10 uM incubated for 24 hrs by PI staining based flow cytometry analysis (reference value: 16.61 %); format: functional
MDA-MB-231 [40] = assay: Induction of cell cycle arrest in human MDA-MB-231 cells assessed as accumulation of cells in G2/G1 phase at 10 uM incubated for 24 hrs by PI staining based flow cytometry analysis (reference value: 1.80 %); format: functional
4T1 [41] = assay: Antitumor activity against mouse 4T1 cells inoculated orthotopic mouse assessed as change in gross appearance of tumor at 10 mg/kg, ip administered every day measured after 14 days; format: functional, organism-based; conditions: time 14.0 day
4T1 [42] = assay: Antitumor activity against mouse 4T1 cells inoculated orthotopic mouse assessed as decrease in tumor weight at 10 mg/kg, ip administered every day measured after 14 days; format: functional, organism-based; conditions: time 14.0 day
[43] = Toxicity in orthotopic mouse inoculated with mouse 4T1 cells assessed as sparse and dull hair at 10 mg/kg, ip administered every day measured after 8 days; format: organism-based; conditions: in vivo, 192 h, time 8 day
[44] = Toxicity in orthotopic mouse inoculated with mouse 4T1 cells assessed as hardened skin at 10 mg/kg, ip administered every day measured after 8 days; format: organism-based; conditions: in vivo, 192 h, time 8 day
[45] = Toxicity in orthotopic mouse inoculated with mouse 4T1 cells assessed as liver cell swelling at 10 mg/kg, ip administered every day measured after 14 days by hematoxylin and eosin staining based assay; format: organism-based; conditions: in vivo, 336 h, time 14 day
MDA-MB-231 [46] = assay: Antiproliferative activity against human MDA-MB-231 cells assessed as inhibition of cell growth; format: functional, cell-based
A549 [47] = assay: Antiproliferative activity against human A549 cells assessed as inhibition of cell growth; format: functional, cell-based
HeLa [48] = assay: Antiproliferative activity against human HeLa cells assessed as inhibition of cell growth; format: functional, cell-based

Cc1ccc(S(=O)(=O)N2C(=O)COC23C=CC(=O)C=C3)cc1
IC50 (MDA-MB-231 [1]): 0.07 µM
IC50 (A549 [2]): 0.11 µM
Activity [3]: Non-Toxic
IC50 (HeLa [4]): 0.18 µM
IC50 (HepG2): > 10 µM
Activity (MDA-MB-231 [5]): 0.72%
Activity (MDA-MB-231 [6]): 3%
Activity (MDA-MB-231 [7]): 10.9%
viability at 10 µM (MDA-MB-231 [8]): 85.4%
mortality [9]: 30%
mortality [10]: 50%
mortality [11]: 60%
Activity [12]: Non-Toxic
Activity [13]: Non-Toxic
Activity [14]: Non-Toxic
Activity [15]: Non-Toxic
Activity [16]: Non-Toxic
Activity [17]: Non-Toxic
Activity [18]: Non-Toxic
Activity [19]: Non-Toxic
Activity [20]: Non-Toxic
Activity [21]: Non-Toxic
Activity [22]: Non-Toxic
Activity [23]: Non-Toxic
Activity [24]: Non-Toxic
Activity [25]: Non-Toxic
Activity [26]: Non-Toxic
Activity (4T1 [27]): 376 mm3
Activity (4T1 [28]): 39%
Activity [29]: Non-Toxic
Activity [30]: Non-Toxic
Activity [31]: Non-Toxic
Activity [32]: Non-Toxic
Activity [33]: Non-Toxic
Activity [34]: Non-Toxic
Activity [35]: Non-Toxic
Activity (4T1 [36]): 95.64%
Activity (MDA-MB-231 [37]): 65.65%
Activity (MDA-MB-231 [38]): 10.29%
Activity (MDA-MB-231 [39]): 24.06%
Activity (MDA-MB-231 [40]): 1.8%
Activity (4T1 [41]): Active
Activity (4T1 [42]): Active

COc1cccc2c1C(=O)c1c(O)c3c(c(O)c1C2=O)C[C@@](O)(C(=O)CO)C[C@@H]3O[C@H]1C[C@H](N)[C@H](O)[C@H](C)O1 [DOXORUBICIN]
Activity (4T1 [27]): 265 mm3
Activity (4T1 [28]): 50%
Activity [29]: 19%
Activity [43]: Toxic
Activity [44]: Toxic
Activity [45]: Toxic
Activity (4T1 [36]): 82.57%
Activity (4T1 [41]): Active
Activity (4T1 [42]): Active

Cc1ccc(S(=O)(=O)N2CCOC23C=CC(=O)C=C3)cc1
IC50 (MDA-MB-231 [46]): 0.39 µM
IC50 (A549 [47]): 0.33 µM
IC50 (HeLa [48]): 0.71 µM
